Results as given in US10130633B2, “Compounds” (BAYER PHARMA AKTIENGESELLSCHAFT, priority 2013, dated 2018).
Counter-ions that a name gives are not always drawn. Like-named read-outs stand apart in the source and are kept apart here.

Assays:
[1] = test system: constitutive active colorectal cancer cell (CRC) Wnt pathway; assay: HCT116 TOPFlash cellular reporter assay (Super TopFlash luciferase), constitutive active Wnt pathway; format: cell-based; settings: HCT116 TOP reporter cells, 36 hours incubation, luciferase expression
Procedure: In order to discover and characterize small molecules which inhibit the constitutive active colorectal cancer cell (CRC) Wnt pathway, a cellular reporter assay was employed. […] Stable transfectants were generated by cotransfection with pcDNA3 and selection of stable transfected cells with 1 mg/ml G418.

[2] = test system: HCT116 FOP control reporter cell line; assay: HCT116 FOPFlash control reporter assay (FOP control vector, non-functional TCF elements); format: cell-based; settings: HCT116 FOP control reporter cells, 36 hours incubation, luciferase expression
From the text: (§1) In a parallel approach, HCT116 cells were cotransfected with the FOP control vector and pcDNA3. The FOP vector is identical to the TOP construct, but it contains instead of functional TCF elements a randomized, non-functional sequence. For this transfection a stable transfected cell line was generated as well.

[3] = test system: wildtype Wnt pathway; assay: HEK293 TOP reporter assay, wildtype Wnt pathway stimulated with Wnt-3a; format: cell-based, human
Procedure: (§2) Measurement of luciferase expression was done as described for the constitutive active Wnt assay.
In order to discover and characterize small molecules which inhibit the wildtype Wnt pathway, a cellular reporter assay was employed. […] Stable transfectants were generated by selection with 300 μg/ml Hygromycin.

[4] = test system: HEK293 FOP control reporter cell line; assay: HEK293 FOP control reporter assay; format: cell-based, human; settings: read-out: HEK FOP IC50
Procedure: as §2
as §1, with “HEK293” for “HCT116”, “well, based on selection with Geneticin (1 mg/ml).” for “well.”

[5] = HEK293 TOP cells, EC50 concentration of recombinant Wnt-3a, 16 hours; read-out: HEK TOP OncoFlash IC50
[6] = HEK293 FOP control cells, EC50 concentration of recombinant Wnt-3a, 16 hours
[7] = Homo sapiens, HEK293, 16 h; read-out: HEK TOP OncoFlash IC50

Compound | IC50 [1] [nM] | IC50 [2] [nM] | IC50 [3, 5] [nM] | IC50 [4, 6] [nM] | IC50 ([1]; Homo sapiens, HCT-116, 36 h) [nM] | IC50 ([2]; Homo sapiens, HCT-116, 36 h) [nM] | IC50 [3, 7] [nM] | IC50 ([4]; Homo sapiens, HEK293, 16 h) [nM] | IC50 ([3]; Homo sapiens, HEK293, 16 h, read-out: HEK TOP OncoFlash IC50) [nM]
CN1CCN(CC(=O)Nc2cc(C(=O)Nc3ccc(-c4ccccc4)cn3)ccc2OC(F)(F)F)CC1 [Example 132, 3-{[(4-methylpiperazin-1-yl)acetyl]amino}-N-(5-phenylpyridin-2-yl)-4-(trifluoromethoxy)benzamide formiate] | 35.5 | 20000 | 70 | 11000 |  |  |  |  | 
O=C(CN1CCOCC1)Nc1cc(NC(=O)c2ccc(-c3ccccc3)s2)ccc1OC(F)(F)F [Example 17, N-{3-[(morpholin-4-ylacetyl)amino]-4-(trifluoromethoxy)phenyl}-5-phenylthiophene-2-carboxamide] |  |  |  |  | 43 | ≥ 50000 | 33 | ≥ 50000 | 
COc1ccc(NC(=O)c2ccc(-c3ccccc3F)nc2)cc1NC(=O)C1(N2CCOCC2)CC1 [Example 62, 6-(2-fluorophenyl)-N-[4-methoxy-3-({[1-(morpholin-4-yl)cyclopropyl]carbonyl}amino)phenyl]nicotinamide] |  |  |  |  | 67.3 | ≥ 50000 | 180 | ≥ 50000 | 
NC(=O)c1ccc(C(=O)Nc2nnc(-c3ccccc3)s2)cc1NC(=O)C1(N2CCOCC2)CC1 [Example 56, 2-({[1-(morpholin-4-yl)cyclopropyl]carbonyl}amino)-N-4-(5-phenyl-1,3,4-thiadiazol-2-yl)terephthalamide] |  |  |  |  | 104 | ≥ 50000 | 190 | ≥ 50000 | 
O=C(CN1CCOCC1)Nc1cc(NC(=O)c2ncc(-c3ccccc3)s2)ccc1OC(F)(F)F [Example 16, N-{3-[(morpholin-4-ylacetyl)amino]-4-(trifluoromethoxy)phenyl}-5-phenyl-1,3-thiazole-2-carboxamide] |  |  |  |  | 17.8 | ≥ 50000 | 92 | ≥ 50000 | 
COCc1ccc(C(=O)Nc2nnc(-c3ccccc3)s2)cc1NC(=O)CN1CCN(C)CC1 [Example 46, 4-(methoxymethyl)-3-{[(4-methylpiperazin-1-yl)acetyl]amino}-N-(5-phenyl-1,3,4-thiadiazol-2-yl)benzamide] |  |  |  |  | 164 | ≥ 50000 | 690 | ≥ 50000 | 
Nc1ccc(-c2ccc(NC(=O)c3ccc(OC(F)(F)F)c(NC(=O)CN4CCOCC4)c3)cn2)cc1 [Example 126, N-[6-(4-aminophenyl)pyridin-3-yl]-3-[(morpholin-4-ylacetyl)amino]-4-(trifluoromethoxy)benzamide] |  |  |  |  | 52.5 | ≥ 50000 | 36 | ≥ 50000 | 
N-[6-(2-fluorophenyl)pyridin-3-yl]-3-{[(2S)-2-(4-methylpiperazin-1-yl)propanoyl]amino}-4-(trifluoromethoxy)benzamide or N-[6-(2-fluorophenyl)pyridin-3-yl]-3-{[(2R)-2-(4-methylpiperazin-1-yl)propanoyl]amino}-4-(trifluoromethoxy)benzamide [Example 66] | 11 | ≥ 50000 |  | ≥ 50000 |  |  |  |  | 
CN1CCN(CC(=O)Nc2cc(C(=O)Nc3nnc(-c4ccccc4)s3)ccc2OC(F)(F)F)CC1 [Example 54, 3-{[(4-methylpiperazin-1-yl)acetyl]amino}-N-(5-phenyl-1,3,4-thiadiazol-2-yl)-4-(trifluoromethoxy)benzamide] |  |  |  |  | 104 | 28000 | 130 | ≥ 50000 | 
COC(=O)c1ccc(C(=O)Nc2nnc(-c3ccccc3)s2)cc1NC(=O)CN1CCN(C)CC1 [Example 105, methyl 2-{[(4-methylpiperazin-1-yl)acetyl]amino}-4-[(5-phenyl-1,3,4-thiadiazol-2-yl)carbamoyl]benzoate] |  |  |  |  | 64 | ≥ 50000 | 300 | ≥ 50000 | 
O=C(Nc1ccc(-c2ccccc2F)nc1)c1ccc(OC2CC2)c(NC(=O)C2(N3CCOCC3)CC2)c1 [Example 134, 4-(cyclopropyloxy)-N-[6-(2-fluorophenyl)pyridin-3-yl]-3-({[1-(morpholin-4-yl)cyclopropyl]carbonyl}amino)benzamide] |  |  |  |  | 16.6 | 5200 | 31 | 12000 | 
CS(=O)(=O)Cc1ccc(C(=O)Nc2nnc(-c3ccccc3)s2)cc1NC(=O)C1(N2CCN(C3CC3)CC2)CC1 [Example 48, 3-({[1-(4-cyclopropylpiperazin-1-yl)cyclopropyl]carbonyl}amino)-4-[(methylsulfonyl)methyl]-N-(5-phenyl-1,3,4-thiadiazol-2-yl)benzamide] |  |  |  |  | 73.7 | ≥ 50000 | 130 | ≥ 50000 | 
COCc1ccc(C(=O)Nc2nnc(-c3ccccc3)s2)cc1NC(=O)C1(N2CCOCC2)CC1 [Example 43, 4-(methoxymethyl)-3-({[1-(morpholin-4-yl)cyclopropyl]carbonyl}amino)-N-(5-phenyl-1,3,4-thiadiazol-2-yl)benzamide] |  |  |  |  | 49.1 | ≥ 50000 | 110 | ≥ 50000 | 
C[C@H](C(=O)Nc1cc(C(=O)Nc2ccc(-c3ccc(N(C)C)cc3)nc2)ccc1OC(F)(F)F)N1CCOCC1 (single isomer, unassigned) [Example 115, N-{6-[4-(dimethylamino)phenyl]pyridin-3-yl}-3-{[(2S)-2-(morpholin-4-yl)propanoyl]amino}-4-(trifluoromethoxy)benzamide or N-{6-[4-(dimethylamino)phenyl]pyridin-3-yl}-3-{[(2R)-2-(morpholin-4-yl)propanoyl]amino}-4-(trifluoromethoxy)benzamide] | 8.8 | 2200 | 52 | 4700 |  |  |  |  | 
COc1ccc(NC(=O)c2ccc(-c3ccccc3)s2)cc1NC(=O)CN1CCOCC1 [Example 25, N-{4-methoxy-3-[(morpholin-4-ylacetyl)amino]phenyl}-5-phenylthiophene-2-carboxamide] |  |  |  |  | 326 | ≥ 50000 | 90 | 10000 | 
CC(C(=O)Nc1cc(C(=O)Nc2nnc(-c3ccccc3)s2)ccc1OC(F)F)N1CCN(C)CC1 (centres unmarked) [Example 42, 4-(difluoromethoxy)-3-{[2-(4-methylpiperazin-1-yl)propanoyl]amino}-N-(5-phenyl-1,3,4-thiadiazol-2-yl)benzamide trifluoroacetate (1:1)] |  |  |  |  | 242 | ≥ 50000 |  | ≥ 50000 | 106
COc1ccc(C(=O)Nc2ccc(-c3ccccc3F)nc2)cc1NC(=O)C1(N2CCOCC2)CC1 [Example 80, N-[6-(2-fluorophenyl)pyridin-3-yl]-4-methoxy-3-({[1-(morpholin-4-yl)cyclopropyl]carbonyl}amino)benzamide] |  |  |  |  | 27 | ≥ 50000 | 150 | 10000 | 
CC(C)(C)c1ccc(NC(=O)c2ccc(-c3ccccc3)s2)cc1NC(=O)CN1CCOCC1 [Example 19, N-{4-tert-butyl-3-[(morpholin-4-ylacetyl)amino]phenyl}-5-phenylthiophene-2-carboxamide] |  |  |  |  | 26.2 | 11000 | 990 | ≥ 50000 | 
O=C(CN1CCOCC1)Nc1cc(NC(=O)c2ccc(-c3ccccc3)nc2)ccc1OC(F)(F)F [Example 33, N-{3-[(morpholin-4-ylacetyl)amino]-4-(trifluoromethoxy)phenyl}-6-phenylnicotinamide] |  |  |  |  | 111 | ≥ 50000 | 370 | 7400 | 
C[C@@H](C(=O)Nc1cc(C(=O)Nc2ccc(-c3ccccc3F)nc2)ccc1OC(F)(F)F)N1CCN(C)CC1 (single isomer, unassigned) [Example 65, N-[6-(2-fluorophenyl)pyridin-3-yl]-3-{[(2S)-2-(4-methylpiperazin-1-yl)propanoyl]amino}-4-(trifluoromethoxy)benzamide or N-[6-(2-fluorophenyl)pyridin-3-yl]-3-{[(2R)-2-(4-methylpiperazin-1-yl)propanoyl]amino}-4-(trifluoromethoxy)benzamide] |  | ≥ 50000 |  | ≥ 50000 |  |  |  |  | 
CC(C(=O)Nc1cc(C(=O)Nc2nnc(-c3ccccc3)s2)ccc1OC(F)(F)F)N1CCOCC1 (centres unmarked) [Example 57, 3-{[2-(morpholin-4-yl)propanoyl]amino}-N-(5-phenyl-1,3,4-thiadiazol-2-yl)-4-(trifluoromethoxy)benzamide] |  | ≥ 50000 |  |  |  |  |  | ≥ 50000 | 
O=C(Nc1nnc(-c2ccccc2)s1)c1ccc(OC(F)(F)F)c(NC(=O)C2(N3CCOCC3)CC2)c1 [Example 50, 3-({[1-(morpholin-4-yl)cyclopropyl]carbonyl}amino)-N-(5-phenyl-1,3,4-thiadiazol-2-yl)-4-(trifluoromethoxy)benzamide] |  |  |  |  |  |  |  | ≥ 50000 | 
